Assay results as given in the supplement of paper PMC10307832.

Key:
Experiment in all cases: relative viability (nuclei count vs DMSO), 5 days (fraction); higher = more cells survive
KIN001-266 + Foretinib = compound: CCN1CCC(CC1)N2C=C(N=N2)CNC3=CC4=C(C(=CN=C4C(=C3)Cl)C#N)NC5=CC(=C(C=C5)F)Cl [KIN001-266] + COc1cc2c(Oc3ccc(NC(=O)C4(C(=O)Nc5ccc(F)cc5)CC4)cc3F)ccnc2cc1OCCCN1CCOCC1 [Foretinib] (partner 0.25 µM)
Method in brief: (§1)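 Relative viability equals treated-well nuclei counts divided by vehicle-well nuclei counts. Counts came from 4× images of lung cancer cell lines grown in 1536-well plates for 5 days after pin-tool dosing on the day after seeding. Dosing used one drug alone or a fixed anchor-drug dose plus five library-drug doses (not always all listed) in √10 steps, and values are medians of duplicate plates.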

KIN001-266 + Palbociclib = compound: CCN1CCC(CC1)N2C=C(N=N2)CNC3=CC4=C(C(=CN=C4C(=C3)Cl)C#N)NC5=CC(=C(C=C5)F)Cl [KIN001-266] + CC(=O)c1c(C)c2cnc(Nc3ccc(N4CCNCC4)cn3)nc2n(C2CCCC2)c1=O [Palbociclib] (partner 0.5 µM)
Method in brief: as §1

KIN001-266 + Bortezomib = compound: CCN1CCC(CC1)N2C=C(N=N2)CNC3=CC4=C(C(=CN=C4C(=C3)Cl)C#N)NC5=CC(=C(C=C5)F)Cl [KIN001-266] + CC(C)C[C@H](NC(=O)[C@H](Cc1ccccc1)NC(=O)c1cnccn1)B(O)O [Bortezomib] (partner 0.002 µM)
Method in brief: as §1

KIN001-266 + Pictilisib = compound: CCN1CCC(CC1)N2C=C(N=N2)CNC3=CC4=C(C(=CN=C4C(=C3)Cl)C#N)NC5=CC(=C(C=C5)F)Cl [KIN001-266] + CS(=O)(=O)N1CCN(Cc2cc3nc(-c4cccc5[nH]ncc45)nc(N4CCOCC4)c3s2)CC1 [Pictilisib] (partner 1 µM)
Method in brief: as §1

Cell Line	relative viability (KIN001-266 + Foretinib; first compound 0.08 µM)	relative viability (KIN001-266 + Foretinib; first compound 0.253 µM)	relative viability (KIN001-266 + Foretinib; first compound 0.8 µM)	relative viability (KIN001-266 + Foretinib; first compound 2.53 µM)	relative viability (KIN001-266 + Foretinib; first compound 8 µM)	relative viability (KIN001-266 + Palbociclib; first compound 0.08 µM)	relative viability (KIN001-266 + Palbociclib; first compound 0.253 µM)	relative viability (KIN001-266 + Palbociclib; first compound 0.8 µM)	relative viability (KIN001-266 + Palbociclib; first compound 2.53 µM)	relative viability (KIN001-266 + Palbociclib; first compound 8 µM)	relative viability (KIN001-266 + Bortezomib; first compound 0.08 µM)	relative viability (KIN001-266 + Bortezomib; first compound 0.253 µM)	relative viability (KIN001-266 + Bortezomib; first compound 0.8 µM)	relative viability (KIN001-266 + Bortezomib; first compound 2.53 µM)	relative viability (KIN001-266 + Bortezomib; first compound 8 µM)	relative viability (KIN001-266 + Pictilisib; first compound 0.08 µM)	relative viability (KIN001-266 + Pictilisib; first compound 0.253 µM)	relative viability (KIN001-266 + Pictilisib; first compound 0.8 µM)	relative viability (KIN001-266 + Pictilisib; first compound 2.53 µM)	relative viability (KIN001-266 + Pictilisib; first compound 8 µM)
HCC-366	0.961	0.955	0.916	0.905	0.851	0.425	0.371	0.302	0.407	0.403	1.04	1.06	0.996	0.998	1.01	0.132	0.114	0.107	0.154	0.156
HCC-827	1.04	1.09	0.944	0.907	0.809	0.443	0.492	0.374	0.471	0.467	1.09	1.03	–	1.07	1.09	0.855	1.09	–	0.785	0.837
HOP-62	0.96	1.11	1.15	1.13	1.13	0.473	0.472	0.457	0.479	0.485	0.563	0.565	0.575	0.779	1.07	0.592	0.813	0.728	0.372	0.506
LC-2-ad	0.964	1	0.904	0.972	0.787	0.535	0.527	0.484	0.499	0.478	0.954	0.948	1.02	1.03	0.956	0.582	0.336	0.466	0.317	0.543
